In paper PMC11733953, “Identification of a Potent CDK8 Inhibitor Using Structure-Based Virtual Screening” (Journal of Chemical Information and Modeling, 2024):

Target: Cyclin-dependent kinase 8 (CDK8) (Homo sapiens, UniProt P49336)
Assay: LanthaScreen Eu kinase binding assay (TR-FRET displacement of Tracer […]), dose-response; […] inhibition at […] in 60-kinase panel

Chain of Cyclin-dependent kinase 8 (CDK8) (P49336 whole entry): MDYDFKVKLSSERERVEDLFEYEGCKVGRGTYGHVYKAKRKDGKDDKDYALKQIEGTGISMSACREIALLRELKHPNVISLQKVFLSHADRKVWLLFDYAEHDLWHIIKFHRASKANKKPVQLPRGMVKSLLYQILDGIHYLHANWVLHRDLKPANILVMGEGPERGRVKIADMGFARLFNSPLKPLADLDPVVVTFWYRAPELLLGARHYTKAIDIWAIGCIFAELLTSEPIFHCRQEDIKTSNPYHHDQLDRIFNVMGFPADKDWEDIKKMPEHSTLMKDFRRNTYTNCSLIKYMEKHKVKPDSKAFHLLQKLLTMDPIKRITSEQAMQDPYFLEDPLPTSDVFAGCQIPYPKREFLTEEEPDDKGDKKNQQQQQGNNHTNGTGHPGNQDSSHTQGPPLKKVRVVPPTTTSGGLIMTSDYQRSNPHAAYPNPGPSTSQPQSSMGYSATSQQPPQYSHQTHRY
Chain of Cyclin-dependent kinase 8 (CDK8) (P24863 whole entry partner): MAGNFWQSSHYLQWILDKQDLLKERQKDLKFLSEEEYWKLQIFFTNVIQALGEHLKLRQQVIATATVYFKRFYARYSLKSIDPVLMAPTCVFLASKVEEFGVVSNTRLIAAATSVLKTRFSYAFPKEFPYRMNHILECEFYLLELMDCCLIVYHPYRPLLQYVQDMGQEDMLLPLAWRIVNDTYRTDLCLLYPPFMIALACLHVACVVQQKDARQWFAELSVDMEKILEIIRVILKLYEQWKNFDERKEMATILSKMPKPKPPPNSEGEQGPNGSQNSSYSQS

O=C(Cc1nnc(-c2ccc3ncccc3c2)o1)NCc1ccc(F)cc1 [P162-0948]
IC50: 50.4 nM
